Test results as given in patent US8481016B2, “Method for inhibition of potential-dependent cation channel” (Kao Corporation, priority 2010, dated 2013).

Legend:
[1] = test system: potential-dependent cation channel of isolated olfactory cells; assay: Test for measuring potential-dependent cation channel activity (whole-cell recording, inward current on depolarization); type: cell-based, Japanese fire belly newt (Cynops pyrrhogaster); settings: for Channel suppression ratio (inward current suppression ratio): Reference Example, concentration not given; for Inhibition ratio (%) (inward current suppression ratio): depolarization -90 mV to -20 mV, newt olfactory cells
Procedure: 1. Isolation of Olfactory Cells
To briefly explain the method of isolation, each newt which had been hibernated in ice-water was double-pithed, and the cranium was cut open to remove olfactory mucosa. The removed olfactory mucosa was incubated in a 0.1% collagenase solution at 37° C. for 5 minutes, and collagenase was washed off. Subsequently, the mucosal tissue was crushed by means of a glass pipette to thereby isolate cells. As the normal Ringer's solution, a solution of 110 mM NaCl, 3.7 mM KCl, 3 mM CaCl2, 1 mM MgCl2, 15 mM glucose, 1 mM sodium pyruvate, 10 mM HEPES, and 0.001% (w/v) Phenol Red, at pH 7.4 (adjusted with NaOH), was used.
2. Measurement of Electrical Activity [A. Setting] […] A borosilicate glass capillary (diameter: 1.2 mm) was used as the electrode, and the electrode was produced using a puller for electrode fabrication (P-97, Sutter Instrument Co.) (electrode resistance: approximately 6.0 MΩ). An electrode filling solution and a silver-silver chloride wire were inserted into the electrode, the silver-silver chloride wire was connected to a patch clamp amplifier (EPC10, HEKA), and thus fixation of the membrane potential and depolarization simulation were performed. […] The recording of the membrane current was performed using a computer (IBM-compatible) connected to the patch clamp amplifier (sampling frequency: 1 kHz), and Patch Master software (HEKA) was used for the measurement and analysis. The addition (spraying) of a test substance was carried out using a pressure controller.
[B. Procedure] In order to investigate the effect of each of the test substances described above (see Table 1) on the potential-dependent cation channel activity, the membrane potential of the isolated olfactory cells was fixed at −90 mV, and the membrane potential was depolarized to −20 mV for 20 milliseconds at an interval of 200 milliseconds. The peak intensity of the inward current produced immediately after depolarization (FIG. 1. |a|=[Inward current value produced immediately after depolarization]−[baseline value]) was measured. While depolarization stimulation was continuously repeated, the test substance was adjusted to the various concentrations indicated in Table 1 using normal Ringer's solution, and the mixture was added to the olfactory cells by spraying the mixture (for 650 milliseconds, pressure: 100 kPa) through a glass pipette (tip diameter: 1 μm) that was placed such that the tip of the pipette was located in the vicinity (10 μm) of the olfactory cells . The change in the inward current (FIG. 1, |b|=[Inward current value when the peak intensity was most suppressed]−[baseline value]) resulting from the spraying was investigated. This spraying was carried out continuous for 5 times. Furthermore, the average value A of the peak intensities (a) of the inward current produced by the depolarization immediately before the addition of an extract, and the average value B of the peak intensities (b) of the inward current produced by the depolarization immediately after the addition of an extract were calculated.
The CNG channel current can be easily distinguished from the potential-dependent channel current, in terms of the intensity, peak shape, duration and the like.
The “inward current suppression ratio (%)” was calculated from the “B: average value of the inward current value (b) when the peak intensity was most suppressed” and the “A: average value of the inward current value (a) produced immediately after the depolarization immediately before the addition of an extract,” as shown in the following formula.

[2] = Olfaction masking test by sensory evaluation, hexanoic acid as malodorous substance; type: in vivo, human beings; settings: 10 panelists, hexanoic acid 10%, 20 μL, same cotton ball
Procedure: An olfaction masking test based on sensory evaluation was carried out with 10 panelists. […] The cotton ball was placed in a 50-mL container, and the malodorous substance was volatilized overnight at room temperature.
The evaluation was carried out such that each panelist smelled the odor in the container, and determined the strength of masking of hexanoic acid by the addition of the adamantane derivatives. The intensity of odor of simple hexanoic acid was set to 5.0, which is an intermediate point among the 21 grades of evaluation criteria (0: no odor, 10: strong odor).

[3] = Sensory evaluation olfaction masking test, isovaleric acid as malodorous substance; type: in vivo; settings: 20 panelists; isovaleric acid 1%, 2 μL; test solution 0.1%, 4 μL; six-grade score 0 (masking not achieved) to 5 (perfect masking)
Procedure: [Sensory evaluation test]
An olfaction masking test based on sensory evaluation was carried out with 20 panelists.
2 μL of the malodorous substance and 4 μL of a test solution of each of the test compounds indicated in Table 3 at a concentration of 0.1% were impregnated into separate cotton balls (diameter: 1 cm), and the substances were volatilized for 12 hours at room temperature in each of separate 50-mL injection syringes. The isovaleric acid and test compound volatilized in the syringe were injected into a PP container (capacity: 500 mL) with a cap and were mixed in the container.
The evaluation was carried out such that each panelist slightly opened the cap of the PP container and smelled the odor in the container, and the panelist determined the masking strength for the odor of isovaleric acid.
The evaluation of the masking strength was carried out based on the following six-grade masking scores, based on a comparison with the intensity of odor in a PP container to which only volatilized isovaleric acid had been injected.
0: Masking is not achieved.
1: A very slight masking effect is recognized.
2: A slight masking effect is recognized.
4: Masking is almost achieved.
5: Perfect masking is achieved.

Row | Compound | Channel suppression ratio (inward current suppression ratio) [1] [%] | other results
1 | CC12CCC(CC1)C(C)(C)O2 [1,8-Cineol] | 46.5 | –
2 | CCC(O)COC1CCCCC1C(C)(C)C (centres unmarked) [AMBER CORE] | 27.1 | –
3 | COc1ccc(C=O)cc1 [ANIS ALDEHYDE] | 89.3 | –
4 | O=C(OCc1ccccc1)c1ccccc1 [BENTHYL BENZOATE] | 10.7 | –
5 | O=Cc1ccccc1 [BENZALDEHYDE] | 95.4 | –
6 | CC(C)=CCCC(C)=CC=O [CIT RAL] | 110.6 | –
7 | C1C2CC3CC1CC(C2)C3 [Comparative Example 1, Adamantane] | – | Inhibition ratio (%) (inward current suppression ratio) ([1]; evaluation concentration 0.04%): 10.9%
8 | CC12CC3CC(C1)CC(C)(C3)C2 [Comparative Example 2, 1,3-Dimethyladamantane] | – | Inhibition ratio (%) (inward current suppression ratio) ([1]; evaluation concentration 0.01%): 0%
9 | C=CC(C)CCCC(C)(C)O (centres unmarked) [DIHYDRO MYRCENOL] | 109.0 | –
10 | OC12CC3CC(CC(C3)C1)C2 [Example 1, 1-Adamantanol] | – | Inhibition ratio (%) (inward current suppression ratio) ([1]; evaluation concentration 0.04%): 72.4%
11 | OCCC12CC3CC(CC(C3)C1)C2 [Example 2, 1-Adamantane ethanol] | – | Inhibition ratio (%) (inward current suppression ratio) ([1]; evaluation concentration 0.04%): 63.4%
12 | CC12CC3CC(C)(C1)CC(CO)(C3)C2 [Example 5, 3,5-Dimethyladamantane-1-methanol] | – | Hexanoic acid odor intensity suppression ratio (%) ([2]; test solution 50%): 28%; Inhibition ratio (%) (inward current suppression ratio) ([1]; evaluation concentration 0.01%): 59.9%
13 | NCC12CC3CC(CC(C3)C1)C2 [Example 6, 1-Adamantane methylamine] | – | Hexanoic acid odor intensity suppression ratio (%) ([2]; test solution 50%): 78%; Inhibition ratio (%) (inward current suppression ratio) ([1]; evaluation concentration 0.01%): 54.5%
14 | CC(=O)C12CC3CC(CC(C3)C1)C2 [Example 7, 1-Adamantylmethyl ketone] | – | Inhibition ratio (%) (inward current suppression ratio) ([1]; evaluation concentration 0.01%): 32%
15 | O=C(O)CC12CC3CC(CC(C3)C1)C2 [Example 8, 1-Adamantane acetic acid] | – | Hexanoic acid odor intensity suppression ratio (%) ([2]; test solution 25%): 32%; Inhibition ratio (%) (inward current suppression ratio) ([1]; evaluation concentration 0.04%): 82.5%
16 | CCOC(=O)CC(=O)C12CC3CC(CC(C3)C1)C2 [Example 9, Ethyl-3-(1-adamantyl)-3-oxopropionate] | – | Inhibition ratio (%) (inward current suppression ratio) ([1]; evaluation concentration 0.01%): 45.5%

Row | Compound | Channel suppression ratio (inward current suppression ratio) [1] [%] | other results
17 | CC(=O)NC12CC3CC(CC(C3)C1)C2 [Example 10, 1-Acetamidoadamantane] | – | Inhibition ratio (%) (inward current suppression ratio) ([1]; evaluation concentration 0.01%): 40.6%
18 | CC(N)C12CC3CC(CC(C3)C1)C2.Cl (centres unmarked) [Example 11] | – | Inhibition ratio (%) (inward current suppression ratio) ([1]; evaluation concentration 0.01%): 78.9%
19 | CCOC(=O)C12CCCC1C1CCC2C1 (centres unmarked) [FRUIT ATE] | 11.6 | –
20 | CC(C)=CCC/C(C)=C/CO [GERANIOL] | 90.1 | –
21 | CC(C=O)Cc1ccc(C(C)(C)C)cc1 (centres unmarked) [LILIAL] | 57.9 | –
22 | C=CC(C)(CCC=C(C)C)OC(C)=O (centres unmarked) [LINALYL ACETATE] | 43.3 | –
23 | CC(C)(O)CCCC1=CCC(C=O)CC1 (centres unmarked) [LYRAL] | 35.7 | –
24 | C=CC(C)(O)CCC=C(C)C (centres unmarked) [Linalool] | 106.5 | –
25 | OCCc1ccccc1 [PHENYL ETHYL ALCOHOL] | 82.6 | –
26 | CCOC(=O)C(C)C1CCCCC1 (centres unmarked) [POIRENATE] | 48.7 | –
27 | CC1=CC(C)C(C=O)CC1 (centres unmarked) [TRIPLAL] | 79.9 | –
28 | CC=CC(=O)C1=C(C)CCCC1(C)C [b-DAMASCONE] | 56.1 | Masking score [3]: 2.4
29 | CC/C=C\CCO [cis-3-HEXENOL] | 78.7 | –
30 | CC(=O)OCCC(C)C [iso-AMYL ACETATE] | 92.0 | –
31 | CC(=O)OC1CCCCC1C(C)(C)C (centres unmarked) [o-t-B.C.H.A] | 23.8 | –
